Measurements published in patent publication US10842807B2, “Methods of treating neurodegenerative disorders comprising DNA methyltransferase inhibitors” (Washington University, priority 2016, dated 2020).

Assays:
Assay type in all cases: cell-based, mouse
[1] = system: Htt-72Q-expressing primary cortical neurons; assay: MTS cell viability assay in Htt-expressing primary cortical neurons; settings: for viability of Htt-72Q-expressing neurons (MTS assay): MTS at DIV 14; for viability of mutant Htt-expressing neurons (MTS assay), validation of screen hits: 0.02, 0.2, 2 μM vs Htt-72Q (0 μM)
Procedure: Mouse primary cortical and striatal neurons from embryonic day (E) 15.5 Swiss Webster mouse fetuses (Taconic) were first plated in the minimal essential medium (MEM) containing 10% FBS, 0.45% glucose, 1 mM sodium pyruvate, 2 mM glutamine, 20 U/ml penicillin and 20 μg/ml streptomycin, for 3 h and then maintained in serum-free Neurobasal medium (Life Technologies) containing NeuroCult™ SM1 neuronal supplement ([…] Technologies), 0.5 mM glutamine and 25 μM glutamate for the first 3 d in a humidified incubator (37° C. in 5% CO2). Half of the medium was replaced with Neurobasal medium with SM1 and 0.5 mM glutamine every 3 days. Primary cortical neurons plated on 96-well flat clear bottom black plates (Corning #3904) at 4×10^4 cells/well were infected with Htt exon1 expression lentivirus (Htt-25Q or Htt-72Q) or control empty vector lentivirus at 5 days in vitro (DIV 5). Primary striatal neurons plated on 96-well plates at 1×10^5 cells/well were infected with Htt exon1 expression lentivirus at DIV 4. Viral copy number was adjusted for transduction of neurons on the basis of titer measured using the Lenti-X qRT-PCR titration kit (Clontech), and equal numbers of viral particles of Htt-25Q and Htt-72Q expressing lentiviruses were used for transduction. For the experiments to test effects of DNMT inhibitors, neurons were treated with inhibitors six hours after Htt lentiviral infection. One half of the media was changed every 3 days with media containing new drug. In knockdown experiments in Htt-expressing neurons, primary cortical neurons were cotransduced with Htt-expressing lentivirus and Dnmt shRNA or control shRNA lentivirus at DIV 5. pLKO.1-TRC1-luciferase (Luci) and pLKO.1-TRC2-LacZ were used as control for RNAi with pLKO.1-TRC1-Dnmt3a and pLKO.1-TRC2-Dnmt1, respectively. Lentiviral particles were prepared by transfecting 293LE cells with the lentiviral plasmid of interest along with packaging plasmid psPAX2 and envelope plasmid pCMV-SVG as described previously^86. Four days after transfection, viruses in the conditioned media were collected and purified using Lenti-X Concentrator (Clontech). Primary cortical neurons from BACHD mouse embryos (E15.5) were individually plated into separate wells and treated at DIV 4 with decitabine or vehicle for 3.5 days.

[2] = system: Htt-72Q-expressing primary cortical neurons; assay: Neurofilament (NF) immunofluorescence, neurite degeneration in cortical neurons; settings: fixed at DIV 14; vs. Htt-72Q (0 μM)
Procedure: (§1) Mouse primary cortical and striatal neurons from embryonic day (E) 15.5 Swiss Webster mouse fetuses (Taconic) were first plated in the minimal essential medium (MEM) containing 10% FBS, 0.45% glucose, 1 mM sodium pyruvate, 2 mM glutamine, 20 U/ml penicillin and 20 μg/ml streptomycin, for 3 h and then maintained in serum-free Neurobasal medium (Life Technologies) containing NeuroCult™ SM1 neuronal supplement ([…] Technologies), 0.5 mM glutamine and 25 μM glutamate for the first 3 d in a humidified incubator (37° C. in 5% CO2). Half of the medium was replaced with Neurobasal medium with SM1 and 0.5 mM glutamine every 3 days. Primary cortical neurons plated on 96-well flat clear bottom black plates (Corning #3904) at 4×10^4 cells/well were infected with Htt exon1 expression lentivirus (Htt-25Q or Htt-72Q) or control empty vector lentivirus at 5 days in vitro (DIV 5). Primary striatal neurons plated on 96-well plates at 1×10^5 cells/well were infected with Htt exon1 expression lentivirus at DIV 4. Viral copy number was adjusted for transduction of neurons on the basis of titer measured using the Lenti-X qRT-PCR titration kit (Clontech), and equal numbers of viral particles of Htt-25Q and Htt-72Q expressing lentiviruses were used for transduction. […]
(§2) For the measurement of neurofilament (NF) immunofluorescence intensity, cortical and striatal neurons cultured in a 96-well plate were fixed in 4% paraformaldehyde (PFA) in PBS for 20 min nine and seven days after Htt lentiviral infection, respectively, permeabilized with 0.1% Triton X-100 in PBS for 15 min at room temperature, and subjected to indirect immunofluorescence with anti-NF (2H3) primary antibody and Alexa Fluor 568-conjugated goat anti-mouse IgG secondary antibody (Life Technologies). […] Following image background subtraction, the NF immunofluorescence intensity was quantified using an ImageJ-based macro. Image capture and quantification of Htt (EM48) immunofluorescence intensity were performed as described for those of NF. […] About 300 nuclei from three random fields in a well were counted. […]

[3] = system: Htt-72Q-expressing primary striatal neurons; assay: Neurofilament (NF) immunofluorescence, neurite degeneration in striatal neurons; settings: DIV 4 striatal neurons transduced, fixed seven days later; vs. Htt-72Q (0 μM)
Procedure: as §1, §2

[4] = system: Htt-72Q-expressing primary cortical neurons; assay: Epigenetic drug library screen, resazurin (Alamar Blue) assay; settings: 0.02, 0.2, 2 μM added at DIV 6, resazurin at DIV 14; hits validated by MTS
Procedure: As epigenetic gene regulation is a cell-type specific mechanism, we used a physiologically relevant, post-mitotic cortical neuron culture system for this screen. In this system, lentivirus-mediated expression of the exon 1-encoded N-terminal fragment of mutant Htt (Htt-72Q with a 72 glutamine repeat), but not wild-type (WT) Htt (Htt-25Q), induces neurotoxicity^38. […] In the drug screen, the viability of Htt-expressing cortical neurons was determined by the resazurin (Alamar Blue) assay, a quantitative measurement of mitochondrial metabolic activity, which correlates with cell viability.
Epigenetic drug screen was performed using a primary cortical neuron model of HD with a drug library composed of 84 compounds (Table 1), among which 80 drugs are purchased from Cayman Chemical (Epigenetic Screening Library Item No 11076) and four drugs, SGC0946, EPZ5676, EPZ6438, and GSK126, were obtained from Xcessbio Biosciences Inc. Mouse primary cortical neurons were plated on 96-well flat clear bottom black plates (Corning #3904). WT or mutant Htt exon1 fragment (Htt-25Q or Htt-72Q)-expressing lentiviruses are infected at DIV 5 as described above. The 84 compounds were added to the media at DIV 6 one day after Htt lentiviral infection with three different doses (0.02, 0.2, 2 μM) for each compound at triplicates. DMSO was used as control. Media containing compounds or DMSO were changed every three days to maintain the compounds' activity. At DIV 14, the viability of neurons was determined by resazurin (Alamar blue) assay, a quantitative measurement of mitochondrial metabolic activity. The screen was fully automated and performed in the High-Throughput Screening Center in Washington University School of Medicine. Any possible plate effects were determined using control plates treated with DMSO and used for normalization. Screen hits were validated by MTS assay.

Nc1ncn([C@@H]2O[C@H](CO)[C@@H](O)[C@H]2O)c(=O)n1 [5-azacytidine]
viability of Htt-72Q-expressing neurons (MTS assay) ([1]; DIV 5 cortical neurons transduced with Htt lentivirus, treated with drug or DMSO (=0 μM), vs. Htt-72Q (0 μM)): no significant difference in survival | Htt-72Q-induced neurite degeneration (NF immunofluorescence intensity), cortical neurons [2]: no significant difference in NF immunofluorescence intensity | mutant Htt-induced neurite degeneration (NF immunofluorescence intensity), striatal neurons [3]: no significant difference in NF immunofluorescence intensity

CC(=O)Nc1ccc(NC(=S)NC(=O)c2ccc(C(C)(C)C)cc2)cc1 [Tenovin-1]
viability of mutant Htt-expressing neurons (MTS assay), validation of screen hits [1]: did not significantly increase the viability of mutant Htt-expressing neurons | outcome in epigenetic drug screen (84 compounds) [4]: one of the top three positive compounds

CNCc1ccc(-c2[nH]c3cc(F)cc4c3c2CCNC4=O)cc1 [AG-014699]
viability of mutant Htt-expressing neurons (MTS assay), validation of screen hits [1]: no significant difference in survival | outcome in epigenetic drug screen (84 compounds) [4]: another screen hit

B1: BDNF: recombinant BDNF protein added in the culture medium (protein, UniProt P23560 19-247, looked up)
Neurotrophic factor BDNF …: APMKEANIRGQGGLAYPGVRTHGTLESVNGPKAGSRGLTSLADTFEHVIEELLDEDQKVRPNEENNKDADLYTSRVMLSSQVPLEPPLLFLLEEYKNYLDAANMSMRVRRHSDPARRGELSVCDSISEWVTAADKKTAVDMSGGTVTVLEKVPVSKGQLKQYFYETKCNPMGYTKEGCRGIDKRHWNSQCRTTQSYVRALTMDSKKRIGWRFIRIDTSCVCTLTIKRGR
viability of Htt-72Q-expressing neurons (MTS assay) ([1]; cultured with recombinant BDNF 50 ng/ml, vs. Htt-72Q with vehicle): increased the viability of Htt-72Q-expressing neurons
